# Laboratory results published in PubChem BioAssay (NCI).
#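 48-hour exposure; five concentrations; linearly interpolated endpoints. GI50 = concentration required for 50% inhibition of growth. Definition used: TGI = concentration required for complete inhibition of growth.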
# Columns and labels:
# Assay in all cases: NCI-60 cell line screen, 48 h
# U251 CNS = test system: U251 CNS
# A549 NSCLC = test system: A549 NSCLC
# MDA-MB-435 = test system: MDA-MB-435
# SF-268 CNS = test system: SF-268 CNS
# OVCAR-8 ovarian = test system: OVCAR-8 ovarian
# OVCAR-3 ovarian = test system: OVCAR-3 ovarian
# HCT-15 colon = test system: HCT-15 colon
# UO-31 renal = test system: UO-31 renal
# HCC-2998 colon = test system: HCC-2998 colon
# OVCAR-5 ovarian = test system: OVCAR-5 ovarian
# M14 melanoma = test system: M14 melanoma
# SNB-75 CNS = test system: SNB-75 CNS
# OVCAR-4 ovarian = test system: OVCAR-4 ovarian
# SK-MEL-28 melanoma = test system: SK-MEL-28 melanoma
# ACHN renal = test system: ACHN renal
# SK-MEL-5 melanoma = test system: SK-MEL-5 melanoma
# A498 renal = test system: A498 renal
# SN12C renal = test system: SN12C renal
# SK-MEL-2 melanoma = test system: SK-MEL-2 melanoma
# COLO 205 colon = test system: COLO 205 colon
# EKVX NSCLC = test system: EKVX NSCLC
# T-47D breast = test system: T-47D breast
# BT-549 breast = test system: BT-549 breast
# UACC-62 melanoma = test system: UACC-62 melanoma
# HOP-92 NSCLC = test system: HOP-92 NSCLC
# 786-0 renal = test system: 786-0 renal
# CAKI-1 renal = test system: CAKI-1 renal
# MCF7 breast = test system: MCF7 breast
# HS 578T breast = test system: HS 578T breast
# SW-620 colon = test system: SW-620 colon
# TK-10 renal = test system: TK-10 renal
# K-562 leukemia = test system: K-562 leukemia
# MOLT-4 leukemia = test system: MOLT-4 leukemia
# SR leukemia = test system: SR leukemia
# SF-295 CNS = test system: SF-295 CNS
# DU-145 prostate = test system: DU-145 prostate
# CCRF-CEM leukemia = test system: CCRF-CEM leukemia
# NCI-H23 lung = test system: NCI-H23 lung
# LOX IMVI melanoma = test system: LOX IMVI melanoma
# IGROV1 ovarian = test system: IGROV1 ovarian
# RPMI-8226 leukemia = test system: RPMI-8226 leukemia
# MALME-3M melanoma = test system: MALME-3M melanoma
# PC-3 prostate = test system: PC-3 prostate
# HCT-116 colon = test system: HCT-116 colon
# UACC-257 melanoma = test system: UACC-257 melanoma
# NCI-H522 lung = test system: NCI-H522 lung
# HOP-62 NSCLC = test system: HOP-62 NSCLC
# HL-60(TB) leukemia = test system: HL-60(TB) leukemia
# KM12 colon = test system: KM12 colon
# MDA-MB-231 breast = test system: MDA-MB-231 breast
# NCI/ADR-RES ovarian = test system: NCI/ADR-RES ovarian
# SNB-19 CNS = test system: SNB-19 CNS
# SK-OV-3 ovarian = test system: SK-OV-3 ovarian
# HT29 colon = test system: HT29 colon
# RXF 393 renal = test system: RXF 393 renal
# SF-539 CNS = test system: SF-539 CNS
# NCI-H226 lung = test system: NCI-H226 lung
# NCI-H460 lung = test system: NCI-H460 lung
# MDA-N = test system: MDA-N
structure (smiles),measurement,setting,value
Oc1[nH]c2ccc(Cl)cc2c1/C=c1/ccc2c(c1)N=C(c1ccc(C(F)(F)F)cc1)N=2,GI50,U251 CNS,1.74 µM
same,TGI,U251 CNS,3.47 µM
same,GI50,A549 NSCLC,3 µM
same,TGI,A549 NSCLC,10.8 µM
same,GI50,MDA-MB-435,1.9 µM
same,TGI,MDA-MB-435,4.7 µM
same,GI50,SF-268 CNS,2.72 µM
same,TGI,SF-268 CNS,7.64 µM
same,GI50,OVCAR-8 ovarian,3.17 µM
same,TGI,OVCAR-8 ovarian,11.4 µM
same,GI50,OVCAR-3 ovarian,1.56 µM
same,TGI,OVCAR-3 ovarian,3.21 µM
same,GI50,HCT-15 colon,2.64 µM
same,TGI,HCT-15 colon,8.91 µM
same,GI50,UO-31 renal,2.56 µM
same,TGI,UO-31 renal,9.81 µM
same,GI50,HCC-2998 colon,2.1 µM
same,TGI,HCC-2998 colon,4.81 µM
same,GI50,OVCAR-5 ovarian,3.1 µM
same,TGI,OVCAR-5 ovarian,12.3 µM
same,GI50,M14 melanoma,1.67 µM
same,TGI,M14 melanoma,3.34 µM
same,GI50,SNB-75 CNS,2.03 µM
same,TGI,SNB-75 CNS,7.51 µM
same,GI50,OVCAR-4 ovarian,2.73 µM
same,TGI,OVCAR-4 ovarian,11.4 µM
same,GI50,SK-MEL-28 melanoma,2.35 µM
same,TGI,SK-MEL-28 melanoma,6.71 µM
same,GI50,ACHN renal,3.24 µM
same,TGI,ACHN renal,15.4 µM
same,GI50,SK-MEL-5 melanoma,1.7 µM
same,TGI,SK-MEL-5 melanoma,3.31 µM
same,GI50,A498 renal,1.32 µM
same,TGI,A498 renal,4.17 µM
same,GI50,SN12C renal,2.37 µM
same,TGI,SN12C renal,6.72 µM
same,GI50,SK-MEL-2 melanoma,1.97 µM
same,TGI,SK-MEL-2 melanoma,3.79 µM
same,GI50,COLO 205 colon,2.1 µM
same,TGI,COLO 205 colon,4.13 µM
same,GI50,EKVX NSCLC,3.16 µM
same,TGI,EKVX NSCLC,18.3 µM
same,GI50,T-47D breast,2.86 µM
same,TGI,T-47D breast,9.23 µM
same,GI50,BT-549 breast,1.87 µM
same,TGI,BT-549 breast,4.75 µM
same,GI50,UACC-62 melanoma,1.71 µM
same,TGI,UACC-62 melanoma,4.06 µM
same,GI50,HOP-92 NSCLC,1.68 µM
same,TGI,HOP-92 NSCLC,4.35 µM
same,GI50,786-0 renal,1.75 µM
same,TGI,786-0 renal,3.31 µM
same,GI50,CAKI-1 renal,2.74 µM
same,TGI,CAKI-1 renal,9.55 µM
same,GI50,MCF7 breast,2.25 µM
same,TGI,MCF7 breast,7.64 µM
same,GI50,HS 578T breast,2.4 µM
same,TGI,HS 578T breast,6.86 µM
same,GI50,SW-620 colon,1.97 µM
same,TGI,SW-620 colon,4.1 µM
same,GI50,TK-10 renal,3.62 µM
same,TGI,TK-10 renal,9.75 µM
same,GI50,K-562 leukemia,2.6 µM
same,TGI,K-562 leukemia,7.73 µM
same,GI50,MOLT-4 leukemia,2.41 µM
same,TGI,MOLT-4 leukemia,6.19 µM
same,GI50,SR leukemia,2.43 µM
same,TGI,SR leukemia,5.38 µM
same,GI50,SF-295 CNS,1.87 µM
same,TGI,SF-295 CNS,5.04 µM
same,GI50,DU-145 prostate,3.12 µM
same,TGI,DU-145 prostate,10.4 µM
same,GI50,CCRF-CEM leukemia,2.43 µM
same,TGI,CCRF-CEM leukemia,6.96 µM
same,GI50,NCI-H23 lung,3.08 µM
same,TGI,NCI-H23 lung,13.6 µM
same,GI50,LOX IMVI melanoma,1.77 µM
same,TGI,LOX IMVI melanoma,3.42 µM
same,GI50,IGROV1 ovarian,3.35 µM
same,TGI,IGROV1 ovarian,14.2 µM
same,GI50,RPMI-8226 leukemia,2.21 µM
same,TGI,RPMI-8226 leukemia,5.44 µM
same,GI50,MALME-3M melanoma,2.34 µM
same,TGI,MALME-3M melanoma,6.57 µM
same,GI50,PC-3 prostate,2.29 µM
same,TGI,PC-3 prostate,7.58 µM
same,GI50,HCT-116 colon,1.98 µM
same,TGI,HCT-116 colon,5.02 µM
same,GI50,UACC-257 melanoma,2.08 µM
same,TGI,UACC-257 melanoma,4.93 µM
same,GI50,NCI-H522 lung,1.66 µM
same,TGI,NCI-H522 lung,3.24 µM
same,GI50,HOP-62 NSCLC,2.28 µM
same,TGI,HOP-62 NSCLC,4.78 µM
same,GI50,HL-60(TB) leukemia,2.61 µM
same,TGI,HL-60(TB) leukemia,5.55 µM
same,GI50,KM12 colon,2.08 µM
same,TGI,KM12 colon,7.63 µM
same,GI50,MDA-MB-231 breast,1.75 µM
same,TGI,MDA-MB-231 breast,3.63 µM
same,GI50,NCI/ADR-RES ovarian,2.6 µM
same,TGI,NCI/ADR-RES ovarian,7.77 µM
same,GI50,SNB-19 CNS,3.12 µM
same,TGI,SNB-19 CNS,17 µM
same,GI50,SK-OV-3 ovarian,4.19 µM
same,TGI,SK-OV-3 ovarian,13.9 µM
same,GI50,HT29 colon,1.78 µM
same,TGI,HT29 colon,3.94 µM
same,GI50,RXF 393 renal,1.88 µM
same,TGI,RXF 393 renal,3.76 µM
same,GI50,SF-539 CNS,2.51 µM
same,TGI,SF-539 CNS,6.65 µM
same,GI50,NCI-H226 lung,3.13 µM
same,TGI,NCI-H226 lung,11.6 µM
same,GI50,NCI-H460 lung,1.88 µM
same,TGI,NCI-H460 lung,3.82 µM
CC(C)[Si](Oc1cc2c3c(ccc2c(O)c1[C@@H](C)CO[Si](C)(C)C(C)(C)C)C(C)(C)CCC3)(C(C)C)C(C)C,TGI,U251 CNS,> 100 µM
same,TGI,A549 NSCLC,> 100 µM
same,TGI,MDA-MB-435,> 100 µM
same,TGI,SF-268 CNS,> 100 µM
same,TGI,OVCAR-8 ovarian,> 100 µM
same,TGI,OVCAR-3 ovarian,> 100 µM
same,TGI,HCT-15 colon,> 100 µM
same,TGI,UO-31 renal,> 100 µM
same,TGI,OVCAR-5 ovarian,> 100 µM
same,TGI,M14 melanoma,> 100 µM
same,TGI,SNB-75 CNS,> 100 µM
same,TGI,OVCAR-4 ovarian,> 100 µM
same,TGI,SK-MEL-28 melanoma,> 100 µM
same,TGI,ACHN renal,> 100 µM
same,TGI,SK-MEL-5 melanoma,59.8 µM
same,TGI,A498 renal,> 100 µM
same,TGI,SN12C renal,> 100 µM
same,TGI,SK-MEL-2 melanoma,> 100 µM
same,TGI,COLO 205 colon,> 100 µM
same,TGI,EKVX NSCLC,> 100 µM
same,TGI,UACC-62 melanoma,> 100 µM
same,TGI,HOP-92 NSCLC,> 100 µM
same,TGI,786-0 renal,> 100 µM
same,TGI,CAKI-1 renal,> 100 µM
same,TGI,MCF7 breast,> 100 µM
same,TGI,HS 578T breast,> 100 µM
same,TGI,SW-620 colon,> 100 µM
same,TGI,TK-10 renal,> 100 µM
same,TGI,K-562 leukemia,> 100 µM
same,TGI,MOLT-4 leukemia,> 100 µM
same,TGI,SR leukemia,> 100 µM
same,TGI,SF-295 CNS,> 100 µM
same,TGI,DU-145 prostate,> 100 µM
same,TGI,CCRF-CEM leukemia,> 100 µM
same,TGI,NCI-H23 lung,> 100 µM
same,TGI,LOX IMVI melanoma,> 100 µM
same,TGI,IGROV1 ovarian,> 100 µM
same,TGI,RPMI-8226 leukemia,> 100 µM
same,TGI,MALME-3M melanoma,> 100 µM
same,TGI,PC-3 prostate,> 100 µM
same,TGI,HCT-116 colon,> 100 µM
same,TGI,UACC-257 melanoma,> 100 µM
same,TGI,NCI-H522 lung,> 100 µM
same,TGI,HOP-62 NSCLC,> 100 µM
same,TGI,HL-60(TB) leukemia,43.4 µM
same,TGI,KM12 colon,> 100 µM
same,TGI,MDA-MB-231 breast,> 100 µM
same,TGI,NCI/ADR-RES ovarian,> 100 µM
same,TGI,SNB-19 CNS,> 100 µM
same,TGI,MDA-N,> 100 µM
same,TGI,SK-OV-3 ovarian,> 100 µM
same,TGI,HT29 colon,> 100 µM
same,TGI,RXF 393 renal,> 100 µM
same,TGI,SF-539 CNS,> 100 µM
same,TGI,NCI-H226 lung,> 100 µM
same,TGI,NCI-H460 lung,> 100 µM
